Results on two molecules are retold here after the NIST ThermoML archive (doi:10.1016/j.fluid.2014.09.016).

The conditions of this data set: 298.15 K; 101.33 kPa; Liquid; Pycnometric method.

± gives the expanded uncertainty stated by the source.

A word on the mass density: it is the mass of a sample divided by its volume. As to `COP(=O)([O-])OC.Cn1cc[n+](C)c1` [1,3-dimethylimidazolium dimethylphosphate], the mass density was found to be 1257.8 ± 1.6 kg/m3.
The same measure for `CCOP(=O)([O-])OCC.CCn1cc[n+](C)c1` [1-ethyl-3-methylimidazolium diethyl phosphate]: 1146.1 ± 1.4 kg/m3.
